Measurements published in US9962369B2, “Methods and compositions for transdermal delivery” (SPRAYABLE HOLDINGS, INC., priority 2014, dated 2018).

Assay: Transdermal delivery of melatonin: plasma level of melatonin after applying composition to skin of a subject
Details: human, plasma, topical, Plasma level of melatonin; for concentration at 1 h: 1 hr after transdermal administration; for concentration at 2 h: 2 hr after transdermal administration; for concentration at 4 h: 4 hr after transdermal administration; for concentration at 8 h: 8 hr after transdermal administration; for concentration at 0 h: 0 hr after transdermal administration
[1] = 3 mg, salt of tryptophan isopropyl ester, A− = Cl^−, 247.52 mM, 0.30 mL applied
[2] = 3 mg, salt of tryptophan isopropyl ester, A− = F^−, 262.85 mM, 0.30 mL applied
[3] = 3 mg, salt of tryptophan isopropyl ester, A− = I^−, 187.04 mM, 0.30 mL applied
[4] = 3 mg, salt of tryptophan isopropyl ester, A− = Lactate ion, 208.11 mM, 0.30 mL applied
[5] = 0.3 mL of 1% melatonin in water, Tryptophan isopropyl ester hydrochloride 247.52 mM, 0.3 mL applied to skin
[6] = 0.3 mL of 1% melatonin in water, salt of tyrosine isopropyl ester, A− = Benzoate ion, 202.65 mM, 0.30 mL applied
[7] = 0.3 mL of 1% melatonin in water, salt of tyrosine isopropyl ester, A− = Lactate ion, 221.97 mM, 0.30 mL applied
[8] = 2 mL of […] melatonin suspension in water, Table 21 control, A− N/A, helper esters 0 mM, 2.0 mL applied
[9] = 2 mL of […] melatonin suspension, Helper esters: None (0 mM), 2.0 mL applied to skin
[10] = 2-(Dibutylamino)ethyl 2-acetoxybenzoate hydrochloride 188.23 mM, 0.375 mL applied to skin
[11] = 2-(Diethylamino)ethyl 2-acetoxybenzoate hydrochloride 221.69 mM, 0.375 mL applied to skin
[12] = 3-(Diethylamino)propyl 2-acetoxybenzoate hydrochloride 212.24 mM, 0.375 mL applied to skin
[13] = 6-(Dimethylamino)hexyl 2-acetoxybenzoate hydrochloride 203.56 mM, 0.375 mL applied to skin
[14] = Proline hexyl ester hydrochloride 296.94 mM, 0.60 mL applied to skin
[15] = Proline isopropyl ester hydrochloride 361.41 mM, 0.60 mL applied to skin
[16] = Proline methyl ester hydrochloride 422.66 mM, 0.60 mL applied to skin
[17] = salt of tryptophan isopropyl ester, A− = Lactate ion, 208.11 mM, 0.30 mL applied
[18] = salt of tyrosine isopropyl ester, A− = AcO^−, 245.0 mM, 0.30 mL applied
[19] = salt of tyrosine isopropyl ester, A− = Benzoate ion, 202.65 mM, 0.30 mL applied
[20] = salt of tyrosine isopropyl ester, A− = Br^−, 230.16 mM, 0.30 mL applied
[21] = salt of tyrosine isopropyl ester, A− = Citrate ion, 168.49 mM, 0.30 mL applied
[22] = salt of tyrosine isopropyl ester, A− = Cl^−, 269.51 mM, 0.30 mL applied
[23] = salt of tyrosine isopropyl ester, A− = F^−, 287.91 mM, 0.30 mL applied
[24] = salt of tyrosine isopropyl ester, A− = I^−, 199.43 mM, 0.30 mL applied

- concentration at 1 h [1]: 2.5 ng/mL
- concentration at 2 h [1]: 2.8 ng/mL
- concentration at 4 h [1]: 2.7 ng/mL
- concentration at 8 h [1]: 2.5 ng/mL
- concentration at 0 h [2]: 0 ng/mL
- concentration at 1 h [2]: 2.6 ng/mL
- concentration at 2 h [2]: 2.8 ng/mL
- concentration at 4 h [2]: 2.9 ng/mL
- concentration at 8 h [2]: 2.6 ng/mL
- concentration at 0 h [3]: 0 ng/mL
- concentration at 1 h [3]: 2.3 ng/mL
- concentration at 2 h [3]: 2.3 ng/mL
- concentration at 4 h [3]: 2.2 ng/mL
- concentration at 8 h [3]: 2.1 ng/mL
- concentration at 0 h [4]: 0 ng/mL
- concentration at 1 h [4]: 1.9 ng/mL
- concentration at 0 h [5]: 0 ng/mL
- concentration at 1 h [5]: 2.5 ng/mL
- concentration at 2 h [6]: 2 ng/mL
- concentration at 4 h [6]: 1.8 ng/mL
- concentration at 8 h [6]: 1.7 ng/mL
- concentration at 0 h [7]: 0 ng/mL
- concentration at 1 h [7]: 1.7 ng/mL
- concentration at 2 h [7]: 1.8 ng/mL
- concentration at 4 h [7]: 2 ng/mL
- concentration at 8 h [7]: 1.6 ng/mL
- concentration at 0 h [8]: 0 ng/mL
- concentration at 1 h [8]: 0.1 ng/mL
- concentration at 2 h [8]: 0.1 ng/mL
- concentration at 4 h [8]: 0.1 ng/mL
- concentration at 8 h [8]: 0.1 ng/mL
- concentration at 4 h [9]: 0.1 ng/mL
- concentration at 8 h [9]: 0.1 ng/mL
- concentration at 0 h [14]: 0 ng/mL
- concentration at 1 h [14]: 1.1 ng/mL
- concentration at 2 h [14]: 1.2 ng/mL
- concentration at 4 h [14]: 1.3 ng/mL
- concentration at 8 h [14]: 1.2 ng/mL
- concentration at 0 h [15]: 0 ng/mL
- concentration at 1 h [15]: 1.4 ng/mL
- concentration at 2 h [15]: 1.4 ng/mL
- concentration at 4 h [15]: 1.5 ng/mL
- concentration at 8 h [15]: 1.4 ng/mL
- concentration at 0 h [16]: 0 ng/mL
- concentration at 1 h [16]: 1.2 ng/mL
- concentration at 2 h [16]: 1.4 ng/mL
- concentration at 4 h [16]: 1.3 ng/mL
- concentration at 8 h [16]: 1.3 ng/mL
- concentration at 2 h [17]: 2 ng/mL
- concentration at 4 h [17]: 1.9 ng/mL
- concentration at 8 h [17]: 1.8 ng/mL
- concentration at 0 h [18]: 0 ng/mL
- concentration at 1 h [18]: 1.8 ng/mL
- concentration at 2 h [18]: 2 ng/mL
- concentration at 4 h [18]: 1.9 ng/mL
- concentration at 8 h [18]: 21.8 ng/mL
- concentration at 0 h [19]: 0 ng/mL
- concentration at 1 h [19]: 1.6 ng/mL
- concentration at 0 h [20]: 0 ng/mL
- concentration at 1 h [20]: 2.3 ng/mL
- concentration at 2 h [20]: 2.7 ng/mL
- concentration at 4 h [20]: 2.7 ng/mL
- concentration at 8 h [20]: 2.6 ng/mL
- concentration at 0 h [21]: 0 ng/mL
- concentration at 1 h [21]: 2 ng/mL
- concentration at 2 h [21]: 2.3 ng/mL
- concentration at 4 h [21]: 2.2 ng/mL
- concentration at 8 h [21]: 2 ng/mL
- concentration at 0 h [22]: 0 ng/mL
- concentration at 1 h [22]: 2.1 ng/mL
- concentration at 2 h [22]: 2.9 ng/mL
- concentration at 4 h [22]: 2.7 ng/mL
- concentration at 8 h [22]: 2.8 ng/mL
- concentration at 0 h [23]: 0 ng/mL
- concentration at 1 h [23]: 2.2 ng/mL
- concentration at 2 h [23]: 2.8 ng/mL
- concentration at 4 h [23]: 2.8 ng/mL
- concentration at 8 h [23]: 2.5 ng/mL
- concentration at 0 h [24]: 0 ng/mL
- concentration at 1 h [24]: 2.1 ng/mL
- concentration at 2 h [24]: 2.3 ng/mL
- concentration at 4 h [24]: 2.3 ng/mL
- concentration at 8 h [24]: 2.1 ng/mL
Structure (SMILES): COc1ccc2[nH]cc(CCNC(C)=O)c2c1 [Melatonin]
- concentration at 0 h [10]: 0 ng/mL
- concentration at 1 h [10]: 1.6 ng/mL
- concentration at 2 h [10]: 1.9 ng/mL
- concentration at 4 h [10]: 1.8 ng/mL
- concentration at 8 h [10]: 1.6 ng/mL
- concentration at 0 h [11]: 0 ng/mL
- concentration at 1 h [11]: 2.3 ng/mL
- concentration at 2 h [11]: 2.6 ng/mL
- concentration at 4 h [11]: 2.7 ng/mL
- concentration at 8 h [11]: 2.4 ng/mL
- concentration at 0 h [12]: 0 ng/mL
- concentration at 1 h [12]: 2.1 ng/mL
- concentration at 2 h [12]: 2.2 ng/mL
- concentration at 4 h [12]: 2.3 ng/mL
- concentration at 8 h [12]: 2.1 ng/mL
- concentration at 0 h [13]: 0 ng/mL
- concentration at 1 h [13]: 1.7 ng/mL
- concentration at 2 h [13]: 2.1 ng/mL
- concentration at 4 h [13]: 2.1 ng/mL
- concentration at 8 h [13]: 1.9 ng/mL
